Measured values reported in patent publication US6812010B1, “Method for enzymatic preparation of homogentisate” (Aventis Cropscience SA, priority 1997, dated 2004).

Legend:
[1] = system: HPP-oxidase (protein extract from Arthrobacter globiformis); assay: HPP-oxidase activity assay with inhibition by an HPPD inhibitor (HPLC detection of HPA); type: biochemical; settings: 100 μM of HPPD inhibitor; 30° C., 5 min
Experimental: The cell pellet, which is approximately 3.4 g, is resuspended in 7 ml of extraction buffer (0.05 M potassium phosphate pH 7.5, 0.1 mM TPP, 0.1 mM MgCl2 and 5 mM mercaptoethanol) and sonicated twice at 23 kHz for 2.5 min. The resulting suspension is centrifuged at 44,000×g for 20 min. The harvested supernatant is again centrifuged at 100,000×g for 60 min. 0.7 ml of 2% protamine sulphate in the extraction buffer is added to the new 7-ml supernatant, followed by gentle stirring. The precipitate which forms is removed by a centrifugation at 20,000×g for 20 min. Ammonium sulphate is gradually added to the supernatant thus obtained so as to reach 60% saturation. This new preparation is stirred for 30 min., and the precipitate formed harvested by centrifugation at 20,000×g for 20 min. The pellet is redissolved in 0.5 ml of extraction buffer and aliquoted in 0.1-ml fractions, these fractions being kept at −80° C. before use.
The HPP-oxidase activity is measured in a 96-well microtitration plate with 200 μl of reaction per well consisting of […] of 67 mM sodium phosphate pH 7.4, 10 μl of 13.4 mM glutathione, 10 μl of 67 mM MgCl2, 10 μl of 26.7 mM TPP, 10 μl of 67 μM FAD, […] (i.e. approximately 6 μg) and 10 μl of 2.5 mM HPP. […]
The plate is then centrifuged at 2000 rpm for 15 min., and the supernatant is analysed by HPLC. […]

[2] = system: HPA-hydroxylase (protein extract from Pseudomonas acidovorans); assay: HPA-hydroxylase activity assay with inhibition by an HPPD inhibitor (HPLC detection of HMO); type: biochemical; settings: 100 μM of HPPD inhibitor; 30° C., 5 min
Experimental: The cell pellet, which is approximately 0.5 g, is resuspended in 1.5 ml of extraction buffer (0.1 M potassium phosphate pH 7.2, 1 mM DTE and 5 mM MgMgSO4) and sonicated twice at 23 kHz for 2.5 min. The resulting suspension is centrifuged at 44,000×g for 20 min. The harvested supernatant is again centrifuged at 100,000×g for 60 min. The new supernatant is aliquoted in 0.1-ml fractions, these fractions being kept at −80° C. before use. The HPA-hydroxylase activity is measured in a 96-well microtitration plate with 200 μl of reaction per well consisting of 150 μl of 0.1 M sodium phosphate fits pH 7.2, 10 μl of 20 mM DTE, 10 μl of 3 mM NADH, 15 μl of 67 μM FAD, 10 μl of protein (i.e. approximately 7 μg) and 5 μl of 10 mM HPA. When an assay for inhibition by an HPPD inhibitor is carried out, 2 μl of 10 mM 4-[4-trifluoromethyl-2-(methylsulphonyl)benzoyl]-5-cyclopropylisoxazole are added to a phosphate buffer containing 20% of DMSO. The reaction is initiated by adding the substrate, HPA; it takes place at 30° C. for 5 min. with stirring. The reaction is stopped by adding 33 μl of 25% perchloric acid. The plate is then centrifuged at 2000 rpm for 15 min., and the supernatant is analysed by HPLC. 10 μl of the supernatant is injected onto a Spherisorb ODS2 column equilibrated with buffer A (5.5% acetonitrile, 0.1% TFA) at the flow rate of 1.5 ml/min. The detection is carried out at 292 nm. […]

CS(=O)(=O)c1cc(C(F)(F)F)ccc1C(=O)c1cnoc1C1CC1 [HPPD inhibitor, 4-[4-trifluoromethyl-2-(methylsulphonyl)benzoyl]-5-cyclopropylisoxazole]
inhibition of the enzyme transforming HPP into HPA [1]: not inhibited | inhibition of the enzyme transforming HPA into HMO [2]: not inhibited
